Assay results: PubChem BioAssay AID1259407 (Chemical Carcinogenesis Research Information System (CCRIS), 2018)
Activity calls are given as the source filed them. The rule behind the calls is not given here.

System: CCRIS mutagenicity, Ames/micronucleus/aberration tests
Experiment: CCRIS mutagenicity studies
[1] = Test System: AMES SALMONELLA TYPHIMURIUM, Strain/Indicator: TA98, Metabolic Activation: NONE, Method: STANDARD PLATE
[2] = Test System: AMES SALMONELLA TYPHIMURIUM, Strain/Indicator: TA100, Metabolic Activation: NONE, Method: STANDARD PLATE
[3] = Test System: AMES SALMONELLA TYPHIMURIUM, Strain/Indicator: TA1535, Metabolic Activation: NONE, Method: STANDARD PLATE
[4] = Test System: AMES SALMONELLA TYPHIMURIUM, Strain/Indicator: TA1537, Metabolic Activation: NONE, Method: STANDARD PLATE
[5] = Test System: AMES SALMONELLA TYPHIMURIUM, Strain/Indicator: TA1538, Metabolic Activation: NONE, Method: STANDARD PLATE
[6] = Test System: AMES SALMONELLA TYPHIMURIUM, Strain/Indicator: TA98, Metabolic Activation: RAT, LIVER, S-9, AROCLOR 1254, Method: STANDARD PLATE
[7] = Test System: AMES SALMONELLA TYPHIMURIUM, Strain/Indicator: TA100, Metabolic Activation: RAT, LIVER, S-9, AROCLOR 1254, Method: STANDARD PLATE

C[C@]1(O)CC[C@H]2[C@@H]3CCC4=CC(=O)CC[C@]4(C)[C@@]3(F)[C@@H](O)C[C@@]21C
mutagenic call (End Point: IN VITRO CHROMOSOMAL ABERRATIONS, Test System: HUMAN PERIPHERAL LYMPHOCYTES, Metabolic Activation: NONE): active; positive after 72 hr treatment at 2 lower doses; positive after 48 or 72 hr trea | mutagenic call (End Point: IN VIVO MICRONUCLEUS, Test System: BONE MARROW POLYCHROMATIC ERYTHROCYTES, Species: MOUSE, Strain/Sex: SWISS ALBINO/MALE, Route: IP): active; positive | mutagenic call (Test System: AMES SALMONELLA TYPHIMURIUM, Strain/Indicator: TA97A, Metabolic Activation: NONE, Method: STANDARD PLATE): inactive; negative; growth inhibition at highest dose | mutagenic call (Test System: AMES SALMONELLA TYPHIMURIUM, Strain/Indicator: TA97A, Metabolic Activation: RAT, LIVER, S-9, PHENOBARBITAL, Method: PREINCUBATION): inactive; negative | mutagenic call [1]: inactive; negative; growth inhibition at highest dose | mutagenic call (Test System: AMES SALMONELLA TYPHIMURIUM, Strain/Indicator: TA98, Metabolic Activation: RAT, LIVER, S-9, PHENOBARBITAL, Method: PREINCUBATION): inactive; negative | mutagenic call [2]: inactive; negative; growth inhibition at highest dose | mutagenic call (Test System: AMES SALMONELLA TYPHIMURIUM, Strain/Indicator: TA100, Metabolic Activation: RAT, LIVER, S-9, PHENOBARBITAL, Method: PREINCUBATION): inactive; negative | mutagenic call (Test System: AMES SALMONELLA TYPHIMURIUM, Strain/Indicator: TA102, Metabolic Activation: NONE, Method: STANDARD PLATE): inactive; negative; growth inhibition at highest dose | mutagenic call (Test System: AMES SALMONELLA TYPHIMURIUM, Strain/Indicator: TA102, Metabolic Activation: RAT, LIVER, S-9, PHENOBARBITAL, Method: PREINCUBATION): inactive; negative | mutagenic call [3]: inactive; negative; growth inhibition at highest dose | mutagenic call (Test System: AMES SALMONELLA TYPHIMURIUM, Strain/Indicator: TA1535, Metabolic Activation: RAT, LIVER, S-9, PHENOBARBITAL, Method: PREINCUBATION): inactive; negative

c1ccc2c(c1)cc1cccc3c4cccc5cccc(c54)c2c13
mutagenic call (Test System: HUMAN H1A1V2 CELLS, Strain/Indicator: TK LOCUS, Metabolic Activation: NONE, Method: SUSPENSION/PLATE): active; positive

Nc1ccn([C@@H]2O[C@H](COP(=O)(O)O)[C@@H](O)[C@H]2O)c(=O)n1
mutagenic call (Test System: AMES SALMONELLA TYPHIMURIUM, Strain/Indicator: TA97, Metabolic Activation: NONE, Method: PREINCUBATION): inactive; negative | mutagenic call (Test System: AMES SALMONELLA TYPHIMURIUM, Strain/Indicator: TA97, Metabolic Activation: RAT, LIVER, S-9, AROCLOR 1254, Method: PREINCUBATION): inactive; negative | mutagenic call (Test System: AMES SALMONELLA TYPHIMURIUM, Strain/Indicator: TA102, Metabolic Activation: NONE, Method: PREINCUBATION): inactive; negative | mutagenic call (Test System: AMES SALMONELLA TYPHIMURIUM, Strain/Indicator: TA102, Metabolic Activation: RAT, LIVER, S-9, AROCLOR 1254, Method: PREINCUBATION): inactive; negative

CC(C)Oc1ccc2c(=O)c(-c3ccccc3)coc2c1
mutagenic call [1]: inactive; negative | mutagenic call (Test System: AMES SALMONELLA TYPHIMURIUM, Strain/Indicator: TA98, Metabolic Activation: S-9, Method: STANDARD PLATE): inactive; negative | mutagenic call [2]: inactive; negative | mutagenic call (Test System: AMES SALMONELLA TYPHIMURIUM, Strain/Indicator: TA100, Metabolic Activation: S-9, Method: STANDARD PLATE): inactive; negative | mutagenic call [3]: inactive; negative | mutagenic call (Test System: AMES SALMONELLA TYPHIMURIUM, Strain/Indicator: TA1535, Metabolic Activation: S-9, Method: STANDARD PLATE): inactive; negative | mutagenic call [4]: inactive; negative | mutagenic call (Test System: AMES SALMONELLA TYPHIMURIUM, Strain/Indicator: TA1537, Metabolic Activation: S-9, Method: STANDARD PLATE): inactive; negative | mutagenic call [5]: inactive; negative | mutagenic call (Test System: AMES SALMONELLA TYPHIMURIUM, Strain/Indicator: TA1538, Metabolic Activation: S-9, Method: STANDARD PLATE): inactive; negative | mutagenic call (Test System: E. COLI, Strain/Indicator: WP2 UVRA, Metabolic Activation: NONE, Method: STANDARD PLATE): inactive; negative | mutagenic call (Test System: E. COLI, Strain/Indicator: WP2 UVRA, Metabolic Activation: S-9, Method: STANDARD PLATE): inactive; negative

N#CCCN
mutagenic call (Test System: AMES SALMONELLA TYPHIMURIUM, Strain/Indicator: TA98, Metabolic Activation: HAMSTER, LIVER, S-9, AROCLOR 1254, Method: STANDARD PLATE): inactive; negative | mutagenic call [1]: inactive; negative | mutagenic call [6]: inactive; negative | mutagenic call (Test System: AMES SALMONELLA TYPHIMURIUM, Strain/Indicator: TA100, Metabolic Activation: HAMSTER, LIVER, S-9, AROCLOR 1254, Method: STANDARD PLATE): inactive; negative | mutagenic call [2]: inactive; negative | mutagenic call [7]: inactive; negative | mutagenic call (Test System: AMES SALMONELLA TYPHIMURIUM, Strain/Indicator: TA1535, Metabolic Activation: HAMSTER, LIVER, S-9, AROCLOR 1254, Method: STANDARD PLATE): inactive; negative | mutagenic call [3]: inactive; negative | mutagenic call (Test System: AMES SALMONELLA TYPHIMURIUM, Strain/Indicator: TA1535, Metabolic Activation: RAT, LIVER, S-9, AROCLOR 1254, Method: STANDARD PLATE): inactive; negative | mutagenic call (Test System: AMES SALMONELLA TYPHIMURIUM, Strain/Indicator: TA1537, Metabolic Activation: HAMSTER, LIVER, S-9, AROCLOR 1254, Method: STANDARD PLATE): inactive; negative | mutagenic call [4]: inactive; negative | mutagenic call (Test System: AMES SALMONELLA TYPHIMURIUM, Strain/Indicator: TA1537, Metabolic Activation: RAT, LIVER, S-9, AROCLOR 1254, Method: STANDARD PLATE): inactive; negative | mutagenic call (Test System: AMES SALMONELLA TYPHIMURIUM, Strain/Indicator: TA1538, Metabolic Activation: HAMSTER, LIVER, S-9, AROCLOR 1254, Method: STANDARD PLATE): inactive; negative | mutagenic call [5]: inactive; negative | mutagenic call (Test System: AMES SALMONELLA TYPHIMURIUM, Strain/Indicator: TA1538, Metabolic Activation: RAT, LIVER, S-9, AROCLOR 1254, Method: STANDARD PLATE): inactive; negative | mutagenic call (Test System: Mouse lymphoma, Strain/Indicator: L5178Y (tk+/tk-), Metabolic Activation: None, Method: Suspension/plate): inactive; inconclusive (previous evaluation negative) | mutagenic call (Test System: Mouse lymphoma, Strain/Indicator: L5178Y (tk+/tk-), Metabolic Activation: Rat, Liver, S-9, Aroclor 1254, Method: Suspension/plate): inactive; negative

CC1=Cc2nc3c(ccc4ccccc43)c(C)c2[C@H](O)[C@H]1O
mutagenic call [7]: active; positive

CC(=O)[C@]1(O)Cc2c(O)c3c(c(O)c2[C@@H](O[C@H]2C[C@H](N)[C@H](O)[C@H](C)O2)C1)C(=O)c1c(O)cccc1C3=O
mutagenic call (Test System: AMES SALMONELLA TYPHIMURIUM, Strain/Indicator: GW257, Metabolic Activation: NONE, Method: STANDARD PLATE): active; positive | mutagenic call (Test System: AMES SALMONELLA TYPHIMURIUM, Strain/Indicator: TA97, Metabolic Activation: NONE, Method: STANDARD PLATE): active; positive | mutagenic call (Test System: AMES SALMONELLA TYPHIMURIUM, Strain/Indicator: TA98, Metabolic Activation: NONE, Method: PREINCUBATION): active; positive | mutagenic call [1]: active; positive | mutagenic call [6]: active; positive | mutagenic call [2]: active; positive | mutagenic call (Test System: AMES SALMONELLA TYPHIMURIUM, Strain/Indicator: TA104, Metabolic Activation: NONE, Method: STANDARD PLATE): inactive; negative | mutagenic call [5]: active; positive | mutagenic call (Test System: AMES SALMONELLA TYPHIMURIUM, Strain/Indicator: TA2637, Metabolic Activation: NONE, Method: STANDARD PLATE): active; positive

CN(C)CCCNc1c2ccccc2nc2c(F)ccc([N+](=O)[O-])c12
mutagenic call [1]: active; positive | mutagenic call [2]: active; positive

O=NN(c1ccc([N+](=O)[O-])cc1)C1OC[C@@H](O)[C@H](O)[C@H]1O (stereo not given in full)
mutagenic call [2]: active; positive

CC12OOC1(COC(=O)Nc1ccc(Cl)cc1)Oc1ccccc12 (stereo not given)
mutagenic call (Test System: AMES SALMONELLA TYPHIMURIUM, Strain/Indicator: TA100, Metabolic Activation: NONE, Method: PREINCUBATION): active; positive
